Article PMC6130513, “In vitro inhibitory effects of Friedelin on human liver cytochrome P450 enzymes” (Pharmaceutical Biology, 2018)

Experiments:
[1] = target: T1, CYP2E1 (Homo sapiens, UniProt P05181); assay: Time-dependent inhibition study of CYP2E1 in human liver microsomes; format: in vitro ADME; settings: Friedelin 20 μM, 30 min preincubation with HLM and NADPH
T1 construct: effects of Friedelin on CYP2E1 catalyzed reactions (chlorzoxazone 6-hydroxylation) in pooled HLM; from tissue; host or cells: pooled human liver microsomes
T1 sequence (P05181 whole entry): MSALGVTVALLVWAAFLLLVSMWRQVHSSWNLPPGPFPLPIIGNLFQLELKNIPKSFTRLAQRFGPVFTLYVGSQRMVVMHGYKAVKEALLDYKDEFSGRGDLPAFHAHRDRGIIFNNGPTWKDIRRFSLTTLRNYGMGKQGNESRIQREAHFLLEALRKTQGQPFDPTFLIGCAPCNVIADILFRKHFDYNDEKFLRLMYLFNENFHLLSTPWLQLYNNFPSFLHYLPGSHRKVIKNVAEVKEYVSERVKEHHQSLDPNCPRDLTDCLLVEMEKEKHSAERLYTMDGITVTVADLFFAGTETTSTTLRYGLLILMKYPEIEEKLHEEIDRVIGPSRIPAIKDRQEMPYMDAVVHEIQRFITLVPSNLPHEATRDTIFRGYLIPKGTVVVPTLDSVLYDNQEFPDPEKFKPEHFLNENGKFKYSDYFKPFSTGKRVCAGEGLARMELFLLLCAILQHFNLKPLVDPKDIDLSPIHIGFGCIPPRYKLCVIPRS
Procedure: (§1) To determine whether Friedelin could inhibit the activity of CYP3A4 and 2E1 in a time-dependent manner, Friedelin (20 μM) was preincubated with HLMs (1 mg/mL) in the presence of an NADPH-generating system for 30 min at 37 °C. After incubation, an aliquot (20 μL) was transferred to another incubation tube (final volume 200 μL) containing an NADPH-generating system and probe substrates whose final concentrations were approximate to Km. Then, further incubations were performed to measure the residual activity. After being incubated for different time (0–30 min), the reactions were terminated by adding a 100 μL acetonitrile internal standard mix and then placed on ice; the corresponding metabolites were determined by HPLC.

[2] = target: T2, CYP2C8 (Homo sapiens, UniProt P10632); assay: CYP2C8 inhibition in pooled human liver microsomes (paclitaxel 6α-hydroxylation); format: in vitro ADME; settings: Friedelin 100 μM, pooled HLMs
T2 construct: from tissue; host or cells: human liver microsomes
T2 sequence (P10632 1-490): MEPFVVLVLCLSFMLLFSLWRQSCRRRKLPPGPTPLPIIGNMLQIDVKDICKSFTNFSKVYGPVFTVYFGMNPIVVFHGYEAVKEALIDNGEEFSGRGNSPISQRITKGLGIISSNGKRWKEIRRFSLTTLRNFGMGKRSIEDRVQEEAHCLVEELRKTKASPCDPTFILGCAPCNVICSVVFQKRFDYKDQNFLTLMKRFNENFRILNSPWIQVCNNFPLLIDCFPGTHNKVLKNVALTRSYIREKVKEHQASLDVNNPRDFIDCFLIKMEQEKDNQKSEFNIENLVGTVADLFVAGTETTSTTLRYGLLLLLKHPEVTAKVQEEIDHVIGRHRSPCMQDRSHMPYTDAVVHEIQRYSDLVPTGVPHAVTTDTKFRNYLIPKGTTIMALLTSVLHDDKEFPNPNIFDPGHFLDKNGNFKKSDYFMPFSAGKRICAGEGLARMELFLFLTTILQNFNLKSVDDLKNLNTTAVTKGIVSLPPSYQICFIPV
Procedure: (§2) All incubations were performed in triplicate, and the mean values were utilized. The typical incubation systems contained 100 mM potassium phosphate buffer (pH 7.4), NADPH generating system (1 mM NADP^+, 10 mM glucose-6-phosphate, 1 U/mL of glucose-6-phosphate dehydrogenase, and 4 mM MgCl2), the appropriate concentration of HLMs, a corresponding probe substrate and Friedelin (or positive inhibitor for different probe reactions) in a final volume of 200 μL.
(§3) The concentration of Friedelin was 100 μM, and the positive inhibitor concentrations were as follows: 1 μM ketoconazole for CYP3A4, 10 μM furafylline for CYP1A2, 10 μM tranylcypromine for CYP2A6, 50 μM clomethiazole for CYP2E1, 10 μM quinidine for CYP2D6, 10 μM sulfaphenazole for CYP2C9, 50 μM tranylcypromine for CYP2C19, 5 μM montelukast for CYP2C8. Probe substrates, positive inhibitors (except for dextromethorphan and quinidine which were dissolved in water) and Friedelin were dissolved in methanol, with a final concentration of 1% (v/v) and 1% neat methanol was added to the incubations without inhibitor. […] The instrument used in this study were Agilent 1260 series instrument with DAD and FLD detector, and the quantitative assay for the corresponding metabolites was performed as previously reported (Lang et al. [2016]; Zhang et al. [2017]). […]

[3] = target: T3, CYP2C9 (Homo sapiens, UniProt P11712); assay: CYP2C9 inhibition in pooled human liver microsomes (diclofenac 4'-hydroxylation); format: in vitro ADME; settings: Friedelin 100 μM, pooled HLMs
T3 construct: from tissue; host or cells: human liver microsomes
T3 sequence (P11712 whole entry): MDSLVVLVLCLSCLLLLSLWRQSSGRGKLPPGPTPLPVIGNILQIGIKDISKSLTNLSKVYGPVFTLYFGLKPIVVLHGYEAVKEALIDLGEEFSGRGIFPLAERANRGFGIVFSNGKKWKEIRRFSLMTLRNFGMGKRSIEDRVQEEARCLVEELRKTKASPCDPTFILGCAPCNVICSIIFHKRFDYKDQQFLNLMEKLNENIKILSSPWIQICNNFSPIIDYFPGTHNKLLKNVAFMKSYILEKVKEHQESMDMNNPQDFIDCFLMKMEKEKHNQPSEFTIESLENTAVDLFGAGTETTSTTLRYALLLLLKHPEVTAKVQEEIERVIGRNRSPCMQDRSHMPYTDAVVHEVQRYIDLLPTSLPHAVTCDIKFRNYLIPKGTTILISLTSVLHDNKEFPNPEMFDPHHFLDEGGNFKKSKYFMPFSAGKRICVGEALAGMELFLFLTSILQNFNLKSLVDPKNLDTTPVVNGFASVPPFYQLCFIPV
Procedure: as §2, §3

[4] = target: T1, CYP2E1; assay: CYP2E1 inhibition in pooled human liver microsomes (chlorzoxazone 6-hydroxylation); format: in vitro ADME; settings: pooled HLMs
Procedure: as §2
(§4) The concentration of Friedelin was 100 μM, and the positive inhibitor concentrations were as follows: 1 μM ketoconazole for CYP3A4, 10 μM furafylline for CYP1A2, 10 μM tranylcypromine for CYP2A6, 50 μM clomethiazole for CYP2E1, 10 μM quinidine for CYP2D6, 10 μM sulfaphenazole for CYP2C9, 50 μM tranylcypromine for CYP2C19, 5 μM montelukast for CYP2C8. Probe substrates, positive inhibitors (except for dextromethorphan and quinidine which were dissolved in water) and Friedelin were dissolved in methanol, with a final concentration of 1% (v/v) and 1% neat methanol was added to the incubations without inhibitor. There was a 3 min preincubation period (at 37 °C) before the reaction was initiated by adding an NADPH-generating system. The reaction was terminated by adding a 100 μL acetonitrile (10% trichloroacetic acid for CYP2A6) internal standard mix, and the solution was placed on ice. The mixture was centrifuged at 12,000 rpm for 10 min, and an aliquot (50 μL) of the supernatant was transferred for HPLC analysis. The instrument used in this study were Agilent 1260 series instrument with DAD and FLD detector, and the quantitative assay for the corresponding metabolites was performed as previously reported (Lang et al. [2016]; Zhang et al. [2017]).
(§5) Friedelin (100 μM) was used to initially screen for its direct inhibitory effects toward different human CYP isoforms. […] Ki values were obtained by incubating various concentrations of different probe substrates (20–100 μM testosterone, 25–200 μM chlorzoxazone) in the presence of 0–50 μM Friedelin.
(§6) The enzyme kinetic parameters for the probe reaction were estimated from the best fit line using least-squares linear regression of the inverse substrate concentration versus the inverse velocity (Lineweaver–Burk plots), and the mean values were used to calculate Vmax and Km. Inhibition data from the experiments that were conducted using multiple compound concentrations were represented by Dixon plots, and inhibition constant (Ki) values were calculated using nonlinear regression according to the following equation: v=(VmaxS)/(Km(1+I/Ki)+S), where I is the concentration of the compound, Ki is the inhibition constant, S is the concentration of the substrate, and Km is the substrate concentration at half the maximum velocity (Vmax) of the reaction. […]

[5] = target: T4, CYP1A2 (Homo sapiens, UniProt P05177); assay: CYP1A2 inhibition in pooled human liver microsomes (phenacetin O-demethylation); format: in vitro ADME; settings: Friedelin 100 μM, pooled HLMs
T4 construct: from tissue; host or cells: human liver microsomes
T4 sequence (P05177 1-516): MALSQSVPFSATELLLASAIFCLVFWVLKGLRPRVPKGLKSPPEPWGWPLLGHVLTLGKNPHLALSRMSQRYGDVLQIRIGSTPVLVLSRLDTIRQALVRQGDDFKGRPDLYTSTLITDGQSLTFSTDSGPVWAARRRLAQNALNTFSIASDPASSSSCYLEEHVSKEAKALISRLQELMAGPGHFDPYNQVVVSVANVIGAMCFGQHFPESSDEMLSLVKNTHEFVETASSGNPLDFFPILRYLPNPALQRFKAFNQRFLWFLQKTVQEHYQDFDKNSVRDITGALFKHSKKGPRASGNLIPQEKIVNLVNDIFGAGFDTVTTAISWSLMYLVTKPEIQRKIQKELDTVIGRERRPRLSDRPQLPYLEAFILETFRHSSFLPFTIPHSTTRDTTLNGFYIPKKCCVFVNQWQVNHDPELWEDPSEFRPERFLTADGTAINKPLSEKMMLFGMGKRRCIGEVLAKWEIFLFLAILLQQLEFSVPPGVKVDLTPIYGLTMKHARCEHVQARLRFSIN
Procedure: as §2, §3

[6] = system: P-glycoprotein (P-gp); design: method as in Lee et al. [2017]; settings: ref Lee et al. [2017]; cited from earlier work
[7] = target: T5, CYP2A6 (Homo sapiens, UniProt P11509); assay: CYP2A6 inhibition in pooled human liver microsomes (coumarin 7-hydroxylation); format: in vitro ADME; settings: Friedelin 100 μM, pooled HLMs
T5 construct: from tissue; host or cells: human liver microsomes
T5 sequence (P11509 1-494): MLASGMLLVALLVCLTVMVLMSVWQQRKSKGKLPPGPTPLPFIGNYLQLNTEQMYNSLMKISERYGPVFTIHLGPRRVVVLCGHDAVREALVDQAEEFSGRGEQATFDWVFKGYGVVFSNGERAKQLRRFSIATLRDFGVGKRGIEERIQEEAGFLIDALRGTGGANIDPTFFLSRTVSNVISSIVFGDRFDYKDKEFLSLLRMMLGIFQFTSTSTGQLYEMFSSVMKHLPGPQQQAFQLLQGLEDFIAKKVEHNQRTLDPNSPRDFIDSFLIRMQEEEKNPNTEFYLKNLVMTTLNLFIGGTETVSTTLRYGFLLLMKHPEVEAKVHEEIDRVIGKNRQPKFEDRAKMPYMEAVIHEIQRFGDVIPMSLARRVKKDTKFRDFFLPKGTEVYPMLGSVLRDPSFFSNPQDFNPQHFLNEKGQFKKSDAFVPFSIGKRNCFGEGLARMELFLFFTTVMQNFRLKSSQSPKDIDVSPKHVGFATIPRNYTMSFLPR
Procedure: as §2, §3

[8] = target: T6, CYP2C19 (Homo sapiens, UniProt P33261); assay: CYP2C19 inhibition in pooled human liver microsomes (S-mephenytoin 4-hydroxylation); format: in vitro ADME; settings: Friedelin 100 μM, pooled HLMs
T6 construct: from tissue; host or cells: human liver microsomes
T6 sequence (P33261 whole entry): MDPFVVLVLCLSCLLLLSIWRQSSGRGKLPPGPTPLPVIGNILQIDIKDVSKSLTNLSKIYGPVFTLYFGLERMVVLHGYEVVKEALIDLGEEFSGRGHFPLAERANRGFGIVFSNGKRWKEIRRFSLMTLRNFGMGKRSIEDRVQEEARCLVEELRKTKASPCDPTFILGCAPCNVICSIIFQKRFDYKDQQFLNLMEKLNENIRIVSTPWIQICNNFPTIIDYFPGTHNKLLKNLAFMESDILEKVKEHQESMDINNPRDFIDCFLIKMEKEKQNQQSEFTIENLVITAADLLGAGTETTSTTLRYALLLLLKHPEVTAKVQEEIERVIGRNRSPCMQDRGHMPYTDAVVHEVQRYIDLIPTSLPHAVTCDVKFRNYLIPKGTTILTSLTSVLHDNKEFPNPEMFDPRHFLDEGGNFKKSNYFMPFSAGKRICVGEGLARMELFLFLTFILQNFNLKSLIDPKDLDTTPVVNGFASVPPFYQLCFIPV
Procedure: as §2, §3

[9] = target: T7, CYP3A4 (Homo sapiens, UniProt P08684); assay: CYP3A4 inhibition in pooled human liver microsomes (testosterone 6β-hydroxylation); format: in vitro ADME; settings: pooled HLMs
T7 construct: effects of Friedelin on CYP3A4 catalyzed reactions (testosterone 6β-hydroxylation) in pooled HLM; from tissue; host or cells: pooled human liver microsomes
T7 sequence (P08684 whole entry): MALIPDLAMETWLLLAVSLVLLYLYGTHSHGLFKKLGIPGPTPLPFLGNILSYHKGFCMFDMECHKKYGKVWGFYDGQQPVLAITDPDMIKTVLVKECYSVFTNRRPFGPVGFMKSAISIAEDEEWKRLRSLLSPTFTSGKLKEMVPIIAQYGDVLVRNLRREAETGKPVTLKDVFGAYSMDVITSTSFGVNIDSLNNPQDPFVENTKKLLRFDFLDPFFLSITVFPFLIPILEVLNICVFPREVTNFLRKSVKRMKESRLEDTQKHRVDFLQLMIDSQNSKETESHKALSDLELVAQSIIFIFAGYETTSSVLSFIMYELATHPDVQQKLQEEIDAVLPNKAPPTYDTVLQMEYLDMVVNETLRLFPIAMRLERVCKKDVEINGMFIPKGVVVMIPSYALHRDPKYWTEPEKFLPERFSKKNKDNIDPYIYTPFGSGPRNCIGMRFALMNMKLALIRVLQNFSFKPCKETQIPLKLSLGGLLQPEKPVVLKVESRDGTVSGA
Procedure: as §2, §4, §5, §6

[10] = target: T7, CYP3A4; assay: Time-dependent inhibition study of CYP3A4 in human liver microsomes; format: in vitro ADME
Procedure: as §1, with “HPLC. To determine the Ki and kinact values for the inactivation of CYP3A4, the incubations were conducted using higher probe substrate concentrations (approximately 4-fold Km values) and various concentrations of Friedelin (0–50 μM) after different preincubation times (0–30 min), with a two-step incubation scheme, as described above.” for “HPLC.”

[11] = target: T8, CYP2D6 (Homo sapiens, UniProt P10635); assay: CYP2D6 inhibition in pooled human liver microsomes (dextromethorphan O-demethylation); format: in vitro ADME; settings: Friedelin 100 μM, pooled HLMs
T8 construct: from tissue; host or cells: human liver microsomes
T8 sequence (P10635 whole entry): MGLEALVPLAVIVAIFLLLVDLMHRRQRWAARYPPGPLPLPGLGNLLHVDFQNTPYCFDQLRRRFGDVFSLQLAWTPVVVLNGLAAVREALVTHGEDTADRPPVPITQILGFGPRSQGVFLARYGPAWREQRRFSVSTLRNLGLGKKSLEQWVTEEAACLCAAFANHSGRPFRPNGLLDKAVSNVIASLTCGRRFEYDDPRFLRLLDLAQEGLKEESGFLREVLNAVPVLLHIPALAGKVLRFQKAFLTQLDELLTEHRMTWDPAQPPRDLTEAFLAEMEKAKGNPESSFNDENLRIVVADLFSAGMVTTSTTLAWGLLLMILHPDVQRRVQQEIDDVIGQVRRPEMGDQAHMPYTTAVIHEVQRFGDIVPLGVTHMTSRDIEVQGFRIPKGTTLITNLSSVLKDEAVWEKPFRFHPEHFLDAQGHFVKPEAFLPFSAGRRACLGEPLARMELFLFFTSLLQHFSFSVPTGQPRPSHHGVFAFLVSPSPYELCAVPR
Procedure: as §2, §3

C[C@H]1C(=O)CC[C@@H]2[C@]1(C)CC[C@H]1[C@@]2(C)CC[C@@]2(C)[C@@H]3CC(C)(C)CC[C@]3(C)CC[C@]12C [Friedelin]
Time-dependent inhibition of CYP2E1 activity [1]: not affected
Inhibition of CYP2C8 activity [2]: could not inhibit
Inhibition of CYP2C9 activity [3]: could not inhibit
Mode of inhibition of CYP2E1 ([4]; Lineweaver–Burk plots): competitive
activity at 100 μM ([4]; human, pooled human liver microsomes, pH 7.4, probe chlorzoxazone (6-hydroxylation), Friedelin 100 μM, chlorzoxazone 6-hydroxylation, read-out: CYP2E1 activity, % of control activity): 18.9%
IC50 ([4]; chlorzoxazone 6-hydroxylation): 22.5 µM
Ki ([4]; secondary Lineweaver–Burk plot, chlorzoxazone 25–200 μM): 18 µM
Inhibition of CYP1A2 activity [5]: could not inhibit
Effect on ATPase activity of P-glycoprotein [6]: could suppress ATPase activity
Inhibition of CYP2A6 activity [7]: could not inhibit
Inhibition of CYP2C19 activity [8]: could not inhibit
Mode of inhibition of CYP3A4 ([9]; Lineweaver–Burk plots): noncompetitive
activity at 100 μM ([9]; human, pooled human liver microsomes, pH 7.4, probe testosterone (6β-hydroxylation), Friedelin 100 μM, testosterone 6β-hydroxylation, read-out: CYP3A4 activity, % of control activity): 7.5%
Ki ([9]; secondary Lineweaver–Burk plot, testosterone 20–100 μM): 6.16 µM
IC50 ([9]; testosterone 6β-hydroxylation): 10.8 µM
Time-dependent inhibition of CYP3A4 activity ([10]; Friedelin 20 μM, 30 min preincubation with HLM and NADPH): decreased with the incubation time
kinact/KI ([10]; human, human liver microsomes, HLM, Friedelin 0–50 μM, preincubation 0–30 min with NADPH, read-out: Kinact/Ki for CYP3A4 inactivation (converted)): 80.7 M⁻¹ s⁻¹
CYP3A4 inactivated each minute (Kinact) ([10]; saturating concentration of Friedelin incubated with HLM): approximately 5.9%
Inhibition of CYP2D6 activity [11]: could not inhibit
